Data: patent US20260070918A1, “HETEROBICYCLIC COMPOUNDS AS EP4 RECEPTOR ANTAGONISTS” (priority 2022, published 2026)

Tests used:
[1] = biological target: EP4 receptor (Homo sapiens (Human), UniProt P35408); assay: EP4 receptor binding assay (inhibition of [3H]PGE2 binding); settings: human recombinant Chem-1 cells, 1 nM [3H]PGE2, 2 hours @25° C.
Description: Transfected HEK 293(ebna) cells are maintained in culture and harvested, and membranes are prepared by differential centrifugation, following lysis of the cells in the presence of protease inhibitors, for use in receptor binding assays. Prostanoid receptor binding assays (for DP1, DP2 (CRTH2), EP1, EP2, EP3-III, EP4, FP, IP, and TP) are performed in 10 mM MES/KOH (pH 6.0) (EPs, FP and TP) or 10 mM HEPES/KOH (pH 7.4) (DPs and IP), containing 1 mM EDTA, 2.5-30 mM divalent cation and the appropriate radioligand that specifically binds to a target prostanoid receptor. Synthetic compounds are added in dimethyl sulfoxide which is kept constant at 1% (v/v) in all incubations. The reaction is initiated by addition of membrane protein. Non-specific binding is determined in the presence of 10 μM of the corresponding non-radioactive prostanoid. Incubations are conducted for 60-90 min at room temperature or 30° C. and terminated by rapid filtration. Compound binding is calculated as a % inhibition of the binding of the radioligand after subtracting nonspecific binding from total binding. The residual specific binding at each ligand concentration is calculated and expressed as a function of ligand concentration to construct sigmoidal concentration-response curve. Half maximal inhibitory concentration, IC50 values of compounds are determined by nonlinear regression analysis of the concentration-response curves using Hill equation curve fitting equation Y=D+[(A−D)/(1+C/IC50)^H], where Y=specific binding, A=left asymptote of the curve, D=right asymptote of the curve, C=compound concentration, and H=slope factor. The binding affinity of the compounds is determined by calculating the equilibrium inhibition constant (Ki) from the equation Ki═InPt/1+[radioligand]/Kd where Kd is the equilibrium dissociation constant for the radioligand: receptor interaction and InPt is the inflection point of the dose-response curves.
EP4 receptor binding assays were performed at MSD Pharma Service in Taiwan under the following assay conditions: • Source: Human recombinant Chem-1 cells • Ligand: 1 nM [^3H]

[2] = Liver microsomal stability, human; format: in vitro ADME; settings: pooled human liver microsomes; for microsomal CLint: read-out: In vitro CLint; for half-life: read-out: In vitro T1/2; for CLint scaled: read-out: Scale-up CLint
Description: (§1) Microsomal stability assay is performed to understand the metabolism of the representative compounds.
(§2) In vitro microsomal stability was determined in pooled human, dog, rat, and mouse liver microsomes. Test compounds (Table 2) were incubated in the presence and absence of NADPH for 0-60 min and the amount of remaining compound was quantified through LC-MS/MS analysis.

[3] = Liver microsomal stability, dog; format: in vitro ADME; settings: pooled dog liver microsomes; for microsomal CLint: read-out: In vitro CLint; for half-life: read-out: In vitro T1/2; for CLint scaled: read-out: Scale-up CLint
Description: as §1, §2

[4] = Liver microsomal stability, rat; format: in vitro ADME; settings: pooled rat liver microsomes; for microsomal CLint: read-out: In vitro CLint; for half-life: read-out: In vitro T1/2; for CLint scaled: read-out: Scale-up CLint
Description: as §1, §2

[5] = Liver microsomal stability, mouse; format: in vitro ADME; settings: pooled mouse liver microsomes; for microsomal CLint: read-out: In vitro CLint; for half-life: read-out: In vitro T1/2; for CLint scaled: read-out: Scale-up CLint
Description: as §1, §2

[6] = Rat pharmacokinetic (PK) assay; format: in vivo, Sprague-Dawley rat
Description: Test compound was dissolved in 10% DMSO, 40% PEG-400, and 50% water for intravenous (i.v.) and oral (p.o.) administration to rat. […] Three male animals received single p.o. doses by gavage tube (5 mg/kg). Blood samples were collected into K2-EDTA tubes from the jugular vein at 0.083, 0.25, 0.5, 1, 2, 4, 8, and 24 h post dosing. After centrifugation, plasma samples were prepared via protein precipitation and detected through LC-MS/MS. The pharmacokinetics parameters were calculated using Phoenix software V 8.3.4.

[7] = male, Sprague-Dawley, plasma, Rat iv, dose 5 mg/kg (table)
[8] = male, Sprague-Dawley, plasma, Rat po, dose 10 mg/kg (table)

Sequence of EP4 receptor (P35408 whole entry): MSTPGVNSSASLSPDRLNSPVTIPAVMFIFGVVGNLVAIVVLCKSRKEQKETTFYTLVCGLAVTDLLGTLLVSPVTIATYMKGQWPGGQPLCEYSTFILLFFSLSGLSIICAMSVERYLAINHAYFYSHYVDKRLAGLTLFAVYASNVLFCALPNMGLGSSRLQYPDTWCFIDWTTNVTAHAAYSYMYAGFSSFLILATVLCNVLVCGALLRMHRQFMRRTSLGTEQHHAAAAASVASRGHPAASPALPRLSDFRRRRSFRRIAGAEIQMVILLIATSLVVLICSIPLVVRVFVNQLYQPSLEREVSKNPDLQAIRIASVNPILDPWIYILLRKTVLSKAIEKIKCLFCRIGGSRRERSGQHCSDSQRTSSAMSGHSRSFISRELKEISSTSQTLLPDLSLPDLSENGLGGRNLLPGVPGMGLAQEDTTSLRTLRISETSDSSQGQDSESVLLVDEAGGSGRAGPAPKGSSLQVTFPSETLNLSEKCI

## O=C(NC1(C23CC(C(=O)O)(C2)C3)CC1)c1c(Cl)sc2ccn(Cc3ccc(C(F)(F)F)cc3)c12 [Example 5, 3-[1-[[2-chloro-4-[[4-(trifluoromethyl)phenyl]methyl]thieno[3,2-b]pyrrole-3-carbonyl]amino]cyclopropyl]bicyclo[1.1.1]pentane-1-carboxylic acid]
[1]
  IC50: 28 nM

## O=C(O)c1ccc(C2(NC(=O)c3c(C(F)(F)F)sc4ccn(Cc5ccc(C(F)(F)F)cc5)c34)CC2)cc1 [Example 11, 4-(1-(2-(trifluoromethyl)-4-(4-(trifluoromethyl)benzyl)-4H-thieno[3,2-b]pyrrole-3-carboxamido)cyclopropyl)benzoic acid]
[1]
  IC50: 1.2 nM

## CC(NC(=O)c1c(Cl)sc2ccn(Cc3ccc(C(F)(F)F)cc3)c12)C12CC(C(=O)O)(C1)C2 (stereo not shown) [Example 9, 3-[1-[[2-chloro-4-[[4-(trifluoromethyl)phenyl]methyl]thieno[3,2-b]pyrrole-3-carbonyl]amino]ethyl]bicyclo[1.1.1]pentane-1-carboxylic acid]
[1]
  IC50: 180 nM

## COc1sc2ccn(Cc3ccc(C(F)(F)F)cc3)c2c1C(=O)NC1(c2ccc(C(=O)O)cc2)CC1 [Example 4, 4-(1-(2-methoxy-4-(4-(trifluoromethyl)benzyl)-4H-thieno[3,2-b]pyrrole-3-carboxamido)cyclopropyl)benzoic acid]
[1]
  IC50: 0.35 nM
[2]
  microsomal CLint: 3.24 µL/min/mg
  half-life: 7.13 h
  CLint scaled: 4.06 mL/min/kg
[3]
  microsomal CLint: 6.06 µL/min/mg
  half-life: 3.82 h
  CLint scaled: 15.1 mL/min/kg
[4]
  microsomal CLint: 11.1 µL/min/mg
  half-life: 2.08 h
  CLint scaled: 19.8 mL/min/kg
[5]
  microsomal CLint: 10.6 µL/min/mg
  half-life: 2.18 h
  CLint scaled: 46.7 mL/min/kg

## O=C(O)c1ccc(C2(NC(=O)c3c(F)sc4ccn(Cc5ccc(C(F)(F)F)cc5)c34)CC2)cc1 [Example 3, 4-(1-(2-fluoro-4-(4-(trifluoromethyl)benzyl)-4H-thieno[3,2-b]pyrrole-3-carboxamido)cyclopropyl)benzoic acid]
[1]
  IC50: 0.48 nM
[2]
  microsomal CLint: 4.03 µL/min/mg
  half-life: 5.73 h
  CLint scaled: 5.05 mL/min/kg
[3]
  microsomal CLint: 3.2 µL/min/mg
  half-life: 7.23 h
  CLint scaled: 7.97 mL/min/kg
[4]
  microsomal CLint: 8.4 µL/min/mg
  half-life: 2.75 h
  CLint scaled: 15 mL/min/kg
[5]
  microsomal CLint: 6.85 µL/min/mg
  half-life: 3.37 h
  CLint scaled: 30.1 mL/min/kg

## Cc1sc2ccn(Cc3ccc(C(F)(F)F)cc3)c2c1C(=O)NC1(C23CCC(C(=O)O)(CC2)CC3)CC1 [Example 8, 4-[1-[[2-methyl-4-[[4-(trifluoromethyl)phenyl]methyl]thieno[3,2-b]pyrrole-3-carbonyl]amino]cyclopropyl]bicyclo[2.2.2]octane-1-carboxylic acid]
[1]
  IC50: 4.9 nM

## O=C(O)c1ccc(C2(NC(=O)c3c(CO)sc4ccn(Cc5ccc(C(F)(F)F)cc5)c34)CC2)cc1 [Example 2, 4-[1-[[2-(hydroxymethyl)-4-[[4-(trifluoromethyl)phenyl]methyl]thieno[3,2-b]pyrrole-3-carbonyl]amino]cyclopropyl]benzoic acid]
[1]
  IC50: 1.1 nM

## O=C(O)c1ccc(C2(NC(=O)c3c(Cl)sc4ccn(Cc5ccc(C(F)(F)F)cc5)c34)CC2)cc1 [Example 1, 4-[1-[[2-chloro-4-[[4-(trifluoromethyl)phenyl]methyl]thieno[3,2-b]pyrrole-3-carbonyl]amino]cyclopropyl]benzoic acid]
[6]; Rat iv, dose 5 mg/kg (table)
  CL_obs: 2.57 mL/min/kg
  Vss_obs: 1.64 L/kg
[6]; [7]
  AUC(0-inf): 33600 ng·h/mL
  AUC(0-t): 27700 ng·h/mL
  C0: 8380 ng/mL
  MRT: 5.93 h
  half-life: 9.47 h
[6]; [8]
  AUC(0-inf): 26700 ng·h/mL
  AUC(0-t): 23400 ng·h/mL
  Cmax: 1830 ng/mL
  MRT: 7.98 h
  Tmax: 6.67 h
  half-life: 8.97 h
[6]; male, Sprague-Dawley, plasma, Rat po, dose 10 mg/kg vs iv 5 mg/kg (table)
  bioavailability: 42.3%
[1]
  IC50: 0.25 nM
[2]
  microsomal CLint: 11.4 µL/min/mg
  half-life: 2.03 h
  CLint scaled: 14.3 mL/min/kg
[3]
  microsomal CLint: 9.89 µL/min/mg
  half-life: 2.33 h
  CLint scaled: 24.6 mL/min/kg
[4]
  microsomal CLint: 13.4 µL/min/mg
  half-life: 1.73 h
  CLint scaled: 24 mL/min/kg
[5]
  microsomal CLint: 15 µL/min/mg
  half-life: 1.54 h
  CLint scaled: 66.1 mL/min/kg

## 3-[1-[[2-methyl-4-[[4-(trifluoromethyl)phenyl]methyl]thieno[3,2-b]pyrrole-3-carbonyl]amino]ethyl]bicyclo[1.1.1]pentane-1-carboxylic acid [Example 10]
[1]
  IC50: 620 nM

## Cc1sc2ccn(Cc3ccc(C(F)(F)F)cc3)c2c1C(=O)NC1(C23CC(C(=O)O)(C2)C3)CC1 [Example 7, 3-[1-[[2-methyl-4-[[4-(trifluoromethyl)phenyl]methyl]thieno[3,2-b]pyrrole-3-carbonyl]amino]cyclopropyl]bicyclo[1.1.1]pentane-1-carboxylic acid]
[1]
  IC50: 50 nM

## O=C(NC1(C23CCC(C(=O)O)(CC2)CC3)CC1)c1c(Cl)sc2ccn(Cc3ccc(C(F)(F)F)cc3)c12 [Example 6, 4-[1-[[2-chloro-4-[[4-(trifluoromethyl)phenyl]methyl]thieno[3,2-b]pyrrole-3-carbonyl]amino]cyclopropyl]bicyclo[2.2.2]octane-1-carboxylic acid]
[1]
  IC50: 8.4 nM
